Measurements: US8618167B2, “Methods of attenuating cognitive deficits with sulfonyl fluorides” (priority 2001, dated 2013)

Tests used:
[1] = molecular target: acetylcholinesterase in comparison to butyrylcholinesterase (Homo sapiens, UniProt P22303); settings: cited from earlier work
[2] = test system: ischemic (MCAo) Sprague-Dawley rats; settings: rat, in vivo
[3] = test system: septal ChAT immunoreactivity; assay: Choline acetyltransferase (ChAT) immunohistochemistry of the septum; assay type: in vivo, rat
Method: Choline Acetyltransferase (ChAT) Immunohistochemistry. Following the behavioral test at 4 wks post-ischemia, randomly selected animals (n=4 per group) were deeply anesthetized and perfused intracardially with 150 ml saline followed by 150 ml of 4% paraformaldehyde. The brains were post-fixed overnight in 4% paraformaldehyde and subsequently immersed in 20% sucrose in 4% paraformaldehyde and stored at 8° C. until sectioning. A vibratome (Vibroslice, Fla.) was used to cut the brain (40 μm sections). Ten serial brain sections that included the septal region (+1.4 to +0.2 mm from the bregma) were processed for ChAT immunohistochemistry. Sections were pre-incubated in 5% blocking serum (normal goat, Jackson ImmunoResearch Laboratories, PA) in 0.1% Triton-X in 0.1 M NaPBS for 60 min, followed by incubation in the primary ChAT antibody (Boehringer Mannheim Biochemical, IN; 1:10 dilution in 0.1 M phosphate-buffered saline, NaPBS) at room temperature overnight. The sections were reacted with the appropriate biotinylated secondary antibody (1:2000) for 45 min, followed by an avidin-biotin-peroxidase complex system (ABC Elite Vectastain Kit, Vector, Burlingame, Calif.) for 45 min. Finally, the Vector VIP Kit (Vector, Burlingame, Calif.) was used to visualize the reaction product. The sections were mounted on gelatin-coated glass slides, dried overnight, dehydrated in increasing alcohol concentrations, and cover-slipped using Permount (Fisher Scientific, Pittsburgh, Pa.) mounting solution. Serial sections were digitized using a PC-based Image Tools computer program. To determine the ChAT alterations in the septum, comparisons of mean total number (average counts from ten brain sections per animal) of septal ChAT-immunoreactive (ir) neurons from MSF- and vehicle-treated ischemic animals were conducted. Individual counts of ChAT-ir neurons were made using the following criteria: heavily stained nuclei (HN), pale stained nuclei (PN) and presence of elaborate processes (P). […] In addition, a 5-point semi-quantitative scale was used to assess the intensity of ChAT immunoreactivity. […]

acetylcholinesterase = molecular target: T1, acetylcholinesterase (Rattus norvegicus, UniProt P37136); assay: Control acetylcholinesterase assays of brain after MSF treatment (Ellman spectrophotometric method); assay type: in vivo; settings: same regimen; dissected brain part
T1 construct: from tissue; host or cells: rat brain (whole brain, hippocampus, cortex, striatum/nucleus accumbens)
T1 sequence (P37136 32-614): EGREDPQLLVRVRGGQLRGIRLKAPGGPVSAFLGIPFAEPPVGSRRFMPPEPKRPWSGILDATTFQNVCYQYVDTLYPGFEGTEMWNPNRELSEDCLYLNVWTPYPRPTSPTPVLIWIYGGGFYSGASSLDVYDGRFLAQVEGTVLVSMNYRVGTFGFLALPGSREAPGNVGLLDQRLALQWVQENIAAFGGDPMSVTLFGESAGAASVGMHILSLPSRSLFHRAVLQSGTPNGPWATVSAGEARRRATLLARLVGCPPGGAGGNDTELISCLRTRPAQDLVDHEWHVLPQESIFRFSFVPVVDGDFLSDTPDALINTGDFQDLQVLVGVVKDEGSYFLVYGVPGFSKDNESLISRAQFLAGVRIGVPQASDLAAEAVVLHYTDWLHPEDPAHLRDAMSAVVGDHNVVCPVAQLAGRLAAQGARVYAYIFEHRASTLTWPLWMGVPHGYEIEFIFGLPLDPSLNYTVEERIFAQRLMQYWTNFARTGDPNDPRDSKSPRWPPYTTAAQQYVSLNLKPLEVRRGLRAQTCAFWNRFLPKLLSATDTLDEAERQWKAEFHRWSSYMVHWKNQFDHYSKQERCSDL
Method: Control Acetylcholinesterase Assays. Two additional groups of normal control (non-ischemic) rats were treated with MSF (N=4) or peanut oil vehicle (N=4) in accordance with the exact procedures used with the other groups in order to estimate the level of acetylcholinesterase inhibition produced. At the end of the study, the rats were sacrificed and acetylcholinesterase assays were conducted at 25° C. according to the spectrophotometric method (Ellman et al., 1961) with minor modifications (pH set at 7.4 and using 1 mM acetyl-β-methyl-thiocholine iodide as substrate).
Drugs. For study 1, animals received ip injections of either MSF (1 mg/kg at 24 and 48 hrs post-MCAo and 0.3 mg/kg thereafter every other day) or the vehicle, peanut oil, for four weeks. Each animal received 0.5 ml of the solution. For study 2, animals received 1 mg/kg at 24 and 48 hrs post-MCAo and 0, 0.15, 0.30 or 0.6 mg/kg of MSF in peanut oil using the same regimen mentioned above. For study 3, animals were introduced to the same regimen as in study 1, but thereafter received peanut oil every other day from four weeks up to eight weeks post-MCAo.

[4] = test system: middle-aged and older rats; settings: chronic MSF treatment; cited from earlier work
SDAT patients = settings: cited from earlier work
[5] = test system: ischemic (MCAo) Sprague-Dawley rats; assay: Step-down passive avoidance test after MCAo; assay type: in vivo, rat
Source text: Experimental Protocol. A total of 48 eight-week-old, male, Sprague-Dawley rats weighing about 250 g served as subjects in the present study. All animals were free of virus antibody. A 3-day acclimation period was allowed prior to using the animals. Animals were kept under a 12-12 hr light/dark cycle and allowed free access to food and water before and after surgical procedures. All experimental procedures followed UTEP IACUC guidelines for use of animals in research to minimize discomfort in the animals during surgery and in the recovery period. […] In study one (n=24), the 0.3 mg/kg dose of MSF, which was previously reported as efficacious in ameliorating cognitive deficits in animals, was used to initially provide the putative drug's effects on ischemic animals. Studies two (dose response effects of MSF; n=16) and three (withdrawal of MSF; n=8) were conducted to further characterize the direct neurobehavioral effects of MSF. […]
The passive avoidance test followed the procedures described in detail elsewhere (Borlongan et al., 1998a; 1998b). […] Acquisition of the task was measured in terms of the amount of time it took the rat to remain on the platform continuously for 3 min. Twenty four hrs later, a retention test was conducted by placing the rat on the platform exactly as before and recording the latency to step-down measured to a maximum of 3 min. […]

[6] = test system: ischemic (MCAo) Sprague-Dawley rats; assay: Elevated body swing test (EBST), motor asymmetry after MCAo; assay type: in vivo, rat; settings: 4 wks after MCAo, MSF 1 mg/kg at 24 and 48 hrs then 0.3 mg/kg every other day i.p., mean±S.E.M., vehicle 84.8±10, p>0.05
brain AChE = molecular target: T2, brain AChE (Rattus norvegicus, UniProt P37136); settings: cited from earlier work
T2 sequence (P37136 32-614): T1 sequence (P37136 32-614)

[7] = test system: brain acetylcholinesterase; settings: cited from earlier work
[8] = test system: ischemia-induced loss of hippocampal pyramidal cells and acetylcholine; settings: pretreatment; cited from earlier work
[9] = chronic MSF 0.22 mg/kg three times per week
[10] = single systemic injection of 1.5 mg/kg MSF

acetylcholinesterase in comparison to butyrylcholinesterase, sequence (P22303 32-614): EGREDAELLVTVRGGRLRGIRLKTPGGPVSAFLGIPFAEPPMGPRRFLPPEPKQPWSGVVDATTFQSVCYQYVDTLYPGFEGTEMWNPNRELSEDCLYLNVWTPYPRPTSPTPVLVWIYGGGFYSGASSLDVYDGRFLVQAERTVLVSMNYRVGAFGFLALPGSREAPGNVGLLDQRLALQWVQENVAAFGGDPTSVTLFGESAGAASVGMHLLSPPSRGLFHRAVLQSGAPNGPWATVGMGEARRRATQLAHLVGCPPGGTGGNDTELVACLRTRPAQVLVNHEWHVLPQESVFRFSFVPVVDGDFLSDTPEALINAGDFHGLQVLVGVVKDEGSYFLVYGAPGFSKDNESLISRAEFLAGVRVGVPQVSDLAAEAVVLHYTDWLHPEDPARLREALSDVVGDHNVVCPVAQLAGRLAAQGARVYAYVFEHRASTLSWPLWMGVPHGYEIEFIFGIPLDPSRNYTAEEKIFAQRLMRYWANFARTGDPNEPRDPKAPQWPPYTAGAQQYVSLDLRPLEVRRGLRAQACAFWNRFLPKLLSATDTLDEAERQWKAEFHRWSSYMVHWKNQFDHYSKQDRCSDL

SMILES: COP(=O)(OC)C(O)C(Cl)(Cl)Cl (stereo not drawn) [metrifonate, reference compound]
- selectivity as inhibitor of acetylcholinesterase in comparison to butyrylcholinesterase [1]: do not show this high degree of selectivity

SMILES: CS(=O)(=O)F [MSF, Methanesulfonyl fluoride]
- ischemia-induced apoptotic cell death [2]: did not block ischemia-induced apoptotic cell death
- mean volume of infarcted tissue [2]: 78.1±14.2 mm^3
- intensity of staining of ChAT-ir neurons in lateral and medial septum ([3]; compared to vehicle-treated ischemic animals): more intense staining of ChAT-ir neurons
- increment in mean total number of HN+P ChAT-ir cells vs vehicle-treated ischemic animals ([3]; septum, 4 wks post-ischemia, heavily stained nuclei with processes, p<0.05): 10%-15%
- increment in mean total number of HN ChAT-ir cells vs vehicle-treated ischemic animals ([3]; septum, 4 wks post-ischemia, heavily stained nuclei, p<0.05): 10%-15%
- acetylcholinesterase inhibition in cortex (acetylcholinesterase): 85.9%
- acetylcholinesterase inhibition in hippocampus (acetylcholinesterase): 88.5%
- acetylcholinesterase inhibition in striatum/nucleus accumbens (acetylcholinesterase): 95.0%
- acquisition of one-trial per day discriminative reward learning task [4]: enhance the acquisition
- persistence of cognition-enhancing effects after withdrawal (SDAT patients; SDAT patients): persisted up to eight weeks after withdrawal of the drug
- cognitive performance of SDAT patients (SDAT patients; double-blind, placebo-controlled study): significant clinical improvements
- passive avoidance: time to acquire the task ([5]; 4 wks after MCAo, same regimen, mean±S.E.M., vehicle 398±62, p<0.05): 255 ± 36 s
- passive avoidance: retention of the task (step down latency) ([5]; retention test 24 hrs after acquisition, max 3 min, vehicle 79±26, p<0.05): 145 ± 18 s
- biased swing activity (EBST) [6]: 87.7±8%
- decrement in brain AChE activity (brain AChE; [9]): about 50%
- liver damage (brain AChE; [9]): no liver damage
- locomotor side effects (brain AChE; [9]): without discernable locomotor side effects
- behavioral alterations (brain AChE; [10]): no observable behavioral alterations
- reduction of brain AChE activity (brain AChE; [10]): 70%
- toxicity at accumulated brain acetylcholinesterase inhibition ([7]; at up to 80-90% brain inhibition): without toxicity
- inhibition of brain acetylcholinesterase that can be accumulated ([7]; relatively small doses over a long period of time, minimum inhibition of peripheral enzyme): 80-90%
- selectivity as inhibitor of acetylcholinesterase in comparison to butyrylcholinesterase [1]: high selectivity

SMILES: CCN(C)C(=O)Oc1cccc([C@H](C)N(C)C)c1 [ENA-173]
- levels of hippocampal acetylcholine and ischemia-induced loss of hippocampal pyramidal cells [8]: preserve the levels of hippocampal acetylcholine and to protect against ischemia-induced loss of pyramidal cells
